From patent publication US20070128217A1 (priority 2003, published 2007)

Assays:
[1] = system: rabbit serum obtained by immunizing a rabbit with the SARS-CoV strain Frankfurt 1; type: binding; set-up: Binding of a rabbit serum to linear peptides / Binding of a rabbit serum to looped peptides / Rabbit serum linear peptides / Rabbit serum looped peptides / Binding of a rabbit serum to linear peptides of protein N of SARS-CoV Urbani (Rabbit serum linear peptides) / Binding of a rabbit serum to looped/cyclic peptides of protein N of SARS-CoV Urbani (Rabbit serum looped peptides): unit not given here
[2] = system: control sera (pooled serum of ten healthy LUMC hospital workers; commercial negative donor pooled serum from the Dutch bloodbank); type: binding, human
[3] = system: antibodies in sera from SARS patients (sera 1a, 1b, 2, 6, 37, 62, London, SARS-yellow, SARS-green); type: binding, human; set-up: Binding of serum 6 to linear peptides of protein X1 of SARS-CoV Urbani / Binding of serum 37 to linear peptides of protein X1 of SARS-CoV Urbani / Binding of serum 6 to looped/cyclic peptide (PEPSCAN-ELISA) / Binding of serum 37 to looped/cyclic peptide (PEPSCAN-ELISA) / Binding of serum 37 to looped/cyclic peptides of protein X1 of SARS-CoV Urbani / Binding of serum 6 to linear peptides of protein X2 / Binding of serum 37 to linear peptides of protein X2 / Binding of serum 37 to looped/cyclic peptides of protein X2 of SARS-CoV Urbani / Binding of serum 6 to linear peptides of protein M of SARS-CoV Urbani / Binding of serum 37 to linear peptides of protein M of SARS-CoV Urbani / Binding of serum 6 to looped/cyclic peptides of protein M of SARS-CoV Urbani / Binding of serum 37 to looped/cyclic peptides of protein M of SARS-CoV Urbani / Binding of serum 6 to linear peptides of protein X3 of SARS-CoV Urbani / Binding of serum 37 to linear peptides of protein X3 of SARS-CoV Urbani / Binding of serum 37 to looped/cyclic peptides of protein X3 of SARS-CoV Urbani / Binding of serum 6 to linear peptides of protein X4 of SARS-CoV Urbani / Binding of serum 37 to linear peptides of protein X4 of SARS-CoV Urbani / Binding of serum 37 to looped/cyclic peptides of protein X4 of SARS-CoV Urbani / Binding of serum 6 to linear peptides of protein X5 of SARS-CoV Urbani / Binding of serum 37 to linear peptides of protein X5 of SARS-CoV Urbani / Binding of serum 37 to looped/cyclic peptides of protein X5 of SARS-CoV Urbani / Binding of serum 6 to linear peptides of protein N of SARS-CoV Urbani / Binding of serum 37 to linear peptides of protein N of SARS-CoV Urbani / Binding of serum 6 to linear peptide (PEPSCAN-ELISA) / Binding of serum 1a to looped/cyclic peptides of protein N of SARS-CoV Urbani / Binding of serum 1b to looped/cyclic peptides of protein N of SARS-CoV Urbani / Binding of serum 2 to looped/cyclic peptides of protein N of SARS-CoV Urbani / Binding of serum 6 to looped/cyclic peptides of protein N of SARS-CoV Urbani / Binding of serum 37 to looped/cyclic peptides of protein N of SARS-CoV Urbani / Binding of serum 62 to looped/cyclic peptides of protein N of SARS-CoV Urbani / Binding of serum London to looped/cyclic peptides of protein N of SARS-CoV Urbani / Binding of serum SARS-green to looped/cyclic peptides of protein N of SARS-CoV Urbani: unit not given here

VDFQVTIAEILIIIM
Rabbit serum linear peptides [1]: 0.3 | Rabbit serum looped peptides [1]: 0.3 | Binding of Control Serum Blood-Bank to Looped peptides of the protein X3 of SARS-CoV Urbani [2]: 0.6 | Binding of Control serum Blood-bank to linear peptides of the protein X3 of SARS-CoV Urbani [2]: 0.8 | Binding of Control serum LUMC to linear peptides of the protein X3 of SARS-CoV Urbani [2]: 0.8 | Binding of Control serum LUMC to looped peptides of the protein X3 of SARS-CoV Urbani [2]: 0.8 | Binding of serum 1a to linear peptides of protein X3 of SARS-CoV Urbani [3]: 0.8 | Binding of serum 1a to looped/cyclic peptides of protein X3 of SARS-CoV Urbani [3]: 0.7 | Binding of serum 1b to linear peptides of protein X3 of SARS-CoV Urbani [3]: 0.5 | Binding of serum 1b to looped/cyclic peptides of protein X3 of SARS-CoV Urbani [3]: 0.4 | Binding of serum 2 to linear peptides of protein X3 of SARS-CoV Urbani [3]: 0.7 | Binding of serum 2 to looped/cyclic peptides of protein X3 of SARS-CoV Urbani [3]: 0.6 | Binding of serum 6 to linear peptides of protein X3 of SARS-CoV Urbani [3]: 0.5 | Binding of serum 6 to looped/cyclic peptides of protein X3 of SARS-CoV Urbani [3]: 0.3 | Binding of serum 37 to linear peptides of protein X3 of SARS-CoV Urbani [3]: 0.5 | Binding of serum 37 to looped/cyclic peptides of protein X3 of SARS-CoV Urbani [3]: 0.6 | Binding of serum 62 to linear peptides of protein X3 of SARS-CoV Urbani [3]: 0.6 | Binding of serum 62 to looped/cyclic peptides of protein X3 of SARS-CoV Urbani [3]: 0.6 | Binding of serum London to linear peptides of protein X3 of SARS-CoV Urbani [3]: 0.6 | Binding of serum London to looped/cyclic peptides of protein X3 of SARS-CoV Urbani [3]: 0.2 | Binding of serum SARS-green to linear peptides of protein X3 of SARS-CoV Urbani [3]: 0.4 | Binding of serum SARS-green to looped/cyclic peptides of protein X3 of SARS-CoV Urbani [3]: 0.3 | Binding of serum SARS-yellow to linear peptides of protein X3 of SARS-CoV Urbani [3]: 0.6 | Binding of serum SARS-yellow to looped/cyclic peptides of protein X3 of SARS-CoV Urbani [3]: 0.8

VNSVLLFLAFVVFLL
Binding of a rabbit serum to linear peptides [1]: 0.2 | Binding of a rabbit serum to looped peptides [1]: 0.4 | Binding of Control Serum Blood-Bank to Looped peptides [2]: 0.5 | Binding of Control serum Blood-bank to linear peptides [2]: 0.5 | Binding of Control serum LUMC to linear peptides [2]: 0.4 | Binding of Control serum LUMC to looped peptides [2]: 0.7 | Binding of serum 1a to linear peptides of protein E of SARS-CoV Urbani [3]: 0.9 | Binding of serum 1a to looped/cyclic peptides of protein E of SARS-CoV Urbani [3]: 0.6 | Binding of serum 1b to linear peptides of protein E of SARS-CoV Urbani [3]: 0.1 | Binding of serum 1b to looped/cyclic peptides of protein E of SARS-CoV Urbani [3]: 0.4 | Binding of serum 2 to linear peptides of protein E of SARS-CoV Urbani [3]: 1.1 | Binding of serum 2 to looped/cyclic peptides of protein E of SARS-CoV Urbani [3]: 0.5 | Binding of serum 6 to linear peptides of protein E of SARS-CoV Urbani [3]: 0.6 | Binding of serum 6 to looped/cyclic peptides of protein E of SARS-CoV Urbani [3]: 0.3 | Binding of serum 37 to linear peptides of protein E of SARS-CoV Urbani [3]: 0.5 | Binding of serum 37 to looped/cyclic peptides of protein E of SARS-CoV Urbani [3]: 0.6 | Binding of serum 62 to linear peptides of protein E of SARS-CoV Urbani [3]: 0.2 | Binding of serum 62 to looped/cyclic peptides of protein E of SARS-CoV Urbani [3]: 0.7 | Binding of serum London to linear peptides of protein E of SARS-CoV Urbani [3]: 1.4 | Binding of serum London to looped/cyclic peptides of protein E of SARS-CoV Urbani [3]: 0.3 | Binding of serum SARS-green to linear peptides of protein E of SARS-CoV Urbani [3]: 0.7 | Binding of serum SARS-green to looped/cyclic peptides of protein E of SARS-CoV Urbani [3]: 0.4 | Binding of serum SARS-yellow to linear peptides of protein E of SARS-CoV Urbani [3]: 0.6 | Binding of serum SARS-yellow to looped/cyclic peptides of protein E of SARS-CoV Urbani [3]: 0.6

VTLAILTALRLCAYC
Binding of a rabbit serum to linear peptides [1]: 0.1 | Binding of a rabbit serum to looped peptides [1]: 0.4 | Binding of Control Serum Blood-Bank to Looped peptides [2]: 0.9 | Binding of Control serum Blood-bank to linear peptides [2]: 0.5 | Binding of Control serum LUMC to linear peptides [2]: 0.6 | Binding of Control serum LUMC to looped peptides [2]: 0.8 | Binding of serum 1a to linear peptides of protein E of SARS-CoV Urbani [3]: 0.6 | Binding of serum 1a to looped/cyclic peptides of protein E of SARS-CoV Urbani [3]: 0.7 | Binding of serum 1b to linear peptides of protein E of SARS-CoV Urbani [3]: 0.5 | Binding of serum 1b to looped/cyclic peptides of protein E of SARS-CoV Urbani [3]: 0.5 | Binding of serum 2 to linear peptides of protein E of SARS-CoV Urbani [3]: 0.6 | Binding of serum 2 to looped/cyclic peptides of protein E of SARS-CoV Urbani [3]: 0.9 | Binding of serum 6 to linear peptides of protein E of SARS-CoV Urbani [3]: 0.3 | Binding of serum 6 to looped/cyclic peptides of protein E of SARS-CoV Urbani [3]: 0.6 | Binding of serum 37 to linear peptides of protein E of SARS-CoV Urbani [3]: 0.4 | Binding of serum 37 to looped/cyclic peptides of protein E of SARS-CoV Urbani [3]: 0.6 | Binding of serum 62 to linear peptides of protein E of SARS-CoV Urbani [3]: 0.4 | Binding of serum 62 to looped/cyclic peptides of protein E of SARS-CoV Urbani [3]: 0.8 | Binding of serum London to linear peptides of protein E of SARS-CoV Urbani [3]: 0.5 | Binding of serum London to looped/cyclic peptides of protein E of SARS-CoV Urbani [3]: 0.5 | Binding of serum SARS-green to linear peptides of protein E of SARS-CoV Urbani [3]: 0.5 | Binding of serum SARS-green to looped/cyclic peptides of protein E of SARS-CoV Urbani [3]: 0.5 | Binding of serum SARS-yellow to linear peptides of protein E of SARS-CoV Urbani [3]: 0.2 | Binding of serum SARS-yellow to looped/cyclic peptides of protein E of SARS-CoV Urbani [3]: 0.7

VVFLLVTLAILTALR
Binding of a rabbit serum to linear peptides [1]: 0.5 | Binding of a rabbit serum to looped peptides [1]: 0.2 | Binding of Control Serum Blood-Bank to Looped peptides [2]: 0.6 | Binding of Control serum Blood-bank to linear peptides [2]: 0.6 | Binding of Control serum LUMC to linear peptides [2]: 0.4 | Binding of Control serum LUMC to looped peptides [2]: 0.6 | Binding of serum 1a to linear peptides of protein E of SARS-CoV Urbani [3]: 0.7 | Binding of serum 1a to looped/cyclic peptides of protein E of SARS-CoV Urbani [3]: 0.5 | Binding of serum 1b to linear peptides of protein E of SARS-CoV Urbani [3]: 0.4 | Binding of serum 1b to looped/cyclic peptides of protein E of SARS-CoV Urbani [3]: 0.3 | Binding of serum 2 to linear peptides of protein E of SARS-CoV Urbani [3]: 0.4 | Binding of serum 2 to looped/cyclic peptides of protein E of SARS-CoV Urbani [3]: 0.5 | Binding of serum 6 to linear peptides of protein E of SARS-CoV Urbani [3]: 0.6 | Binding of serum 6 to looped/cyclic peptides of protein E of SARS-CoV Urbani [3]: 0.5 | Binding of serum 37 to linear peptides of protein E of SARS-CoV Urbani [3]: 0.6 | Binding of serum 37 to looped/cyclic peptides of protein E of SARS-CoV Urbani [3]: 0.4 | Binding of serum 62 to linear peptides of protein E of SARS-CoV Urbani [3]: 0.6 | Binding of serum 62 to looped/cyclic peptides of protein E of SARS-CoV Urbani [3]: 0.7 | Binding of serum London to linear peptides of protein E of SARS-CoV Urbani [3]: 0.5 | Binding of serum London to looped/cyclic peptides of protein E of SARS-CoV Urbani [3]: 0.5 | Binding of serum SARS-green to linear peptides of protein E of SARS-CoV Urbani [3]: 0.5 | Binding of serum SARS-green to looped/cyclic peptides of protein E of SARS-CoV Urbani [3]: 0.2 | Binding of serum SARS-yellow to linear peptides of protein E of SARS-CoV Urbani [3]: 0.1 | Binding of serum SARS-yellow to looped/cyclic peptides of protein E of SARS-CoV Urbani [3]: 0.5
